Source: the supplement of paper PMC10307832

Experiments:
Assay in all cases: relative viability (nuclei count vs DMSO), 5 days (fraction); higher = more cells survive
UMC-11 = system: UMC-11
In short: (§1)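 Each reported value is a median over duplicate plates. It expresses relative viability: treated-well nuclei count divided by vehicle-well nuclei count. Lung cancer cell lines in 1536-well plates were dosed by pin tool a day after seeding, alone with one drug or with a fixed anchor-drug dose plus five library-drug doses (not always all listed) in √10 steps, and nuclei were counted after 5 days.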

NCI-H2228 = system: NCI-H2228
In short: as §1

SK-LU-1 = system: SK-LU-1
In short: as §1

NCI-H1734 = system: NCI-H1734
In short: as §1

NCI-H1944 = system: NCI-H1944
In short: as §1

NCI-H2009 = system: NCI-H2009
In short: as §1

NCI-H1793 = system: NCI-H1793
In short: as §1

LK-2 = system: LK-2
In short: as §1

NCI-H1993 = system: NCI-H1993
In short: as §1

NCI-H23 = system: NCI-H23
In short: as §1

NCI-H838 = system: NCI-H838
In short: as §1

NCI-H1650 = system: NCI-H1650
In short: as §1

HCC-78 = system: HCC-78
In short: as §1

COR-L23 = system: COR-L23
In short: as §1

HARA = system: HARA
In short: as §1

EMC-BAC-2 = system: EMC-BAC-2
In short: as §1

HCC-366 = system: HCC-366
In short: as §1

LC-2-ad = system: LC-2-ad
In short: as §1

NCI-H2405 = system: NCI-H2405
In short: as §1

HCC-15 = system: HCC-15
In short: as §1

NCI-H2023 = system: NCI-H2023
In short: as §1

A-427 = system: A-427
In short: as §1

ABC-1 = system: ABC-1
In short: as §1

Work on `CC(C)Oc1cc(Nc2nc(N[C@@H](C)c3ccc(F)cn3)ncc2Cl)n[nH]1` [AZ23] + CS(=O)(=O)CCNCc1ccc(-c2ccc3ncnc(Nc4ccc(OCc5cccc(F)c5)c(Cl)c4)c3c2)o1 [Lapatinib] (partner 2 µM) yielded a relative viability (UMC-11; first compound 0.01 µM) of 0.946, a relative viability (UMC-11; first compound 0.03162 µM) of 0.994 and a relative viability (UMC-11; first compound 0.3162 µM) of 1.02. It also gave a relative viability (NCI-H2228; first compound 0.01 µM) of 1.51, a relative viability (NCI-H2228; first compound 0.03162 µM) of 0.867 and a relative viability (NCI-H2228; first compound 0.3162 µM) of 0.992. It also gave a relative viability (SK-LU-1; first compound 0.01 µM) of 0.929, a relative viability (SK-LU-1; first compound 0.03162 µM) of 1.06 and a relative viability (SK-LU-1; first compound 0.3162 µM) of 1.06. It also gave a relative viability (NCI-H1734; first compound 0.01 µM) of 1.27, a relative viability (NCI-H1734; first compound 0.03162 µM) of 1.23 and a relative viability (NCI-H1734; first compound 0.3162 µM) of 1.11. For the same compound, the relative viability (NCI-H1944; first compound 0.01 µM) was 0.789, the relative viability (NCI-H1944; first compound 0.03162 µM) was 0.88 and the relative viability (NCI-H1944; first compound 0.3162 µM) was 0.903. For the same compound, the relative viability (NCI-H2009; first compound 0.01 µM) was 0.97, the relative viability (NCI-H2009; first compound 0.03162 µM) was 0.997 and the relative viability (NCI-H2009; first compound 0.3162 µM) was 0.918. It also gave a relative viability (NCI-H1793; first compound 0.01 µM) of 0.367, a relative viability (NCI-H1793; first compound 0.03162 µM) of 0.804 and a relative viability (NCI-H1793; first compound 0.3162 µM) of 0.486. It also gave a relative viability (LK-2; first compound 0.01 µM) of 0.958, a relative viability (LK-2; first compound 0.03162 µM) of 1.3 and a relative viability (LK-2; first compound 0.3162 µM) of 0.685. It also gave a relative viability (NCI-H1993; first compound 0.01 µM) of 0.808, a relative viability (NCI-H1993; first compound 0.3162 µM) of 0.946 and a relative viability (NCI-H23; first compound 0.03162 µM) of 1.23. It also gave a relative viability (NCI-H23; first compound 0.3162 µM) of 1.07, a relative viability (NCI-H838; first compound 0.01 µM) of 0.99 and a relative viability (NCI-H838; first compound 0.03162 µM) of 1.06. For the same compound, the relative viability (NCI-H838; first compound 0.3162 µM) was 0.908, the relative viability (NCI-H1650; first compound 0.01 µM) was 0.762 and the relative viability (NCI-H1650; first compound 0.03162 µM) was 0.922. It also gave a relative viability (NCI-H1650; first compound 0.3162 µM) of 0.54, a relative viability (HCC-78; first compound 0.01 µM) of 0.469 and a relative viability (HCC-78; first compound 0.03162 µM) of 1. For the same compound, the relative viability (HCC-78; first compound 0.3162 µM) was 0.456, the relative viability (COR-L23; first compound 0.01 µM) was 1.12 and the relative viability (COR-L23; first compound 0.03162 µM) was 1.1. The relative viability (COR-L23; first compound 0.3162 µM) was 1, the relative viability (HARA; first compound 0.01 µM) was 0.862 and the relative viability (HARA; first compound 0.03162 µM) was 0.708. For the same compound, the relative viability (HARA; first compound 0.3162 µM) was 0.584, the relative viability (EMC-BAC-2; first compound 0.01 µM) was 0.968 and the relative viability (EMC-BAC-2; first compound 0.03162 µM) was 0.981. For the same compound, the relative viability (EMC-BAC-2; first compound 0.3162 µM) was 0.922, the relative viability (HCC-366; first compound 0.01 µM) was 0.905 and the relative viability (HCC-366; first compound 0.03162 µM) was 1.52. The relative viability (HCC-366; first compound 0.3162 µM) was 1.11, the relative viability (LC-2-ad; first compound 0.01 µM) was 1.32 and the relative viability (LC-2-ad; first compound 0.03162 µM) was 0.997. For the same compound, the relative viability (LC-2-ad; first compound 0.3162 µM) was 0.912, the relative viability (NCI-H2405; first compound 0.01 µM) was 1 and the relative viability (NCI-H2405; first compound 0.03162 µM) was 1.16. For the same compound, the relative viability (NCI-H2405; first compound 0.3162 µM) was 0.943, the relative viability (HCC-15; first compound 0.01 µM) was 1.08 and the relative viability (HCC-15; first compound 0.03162 µM) was 0.839. It also gave a relative viability (HCC-15; first compound 0.3162 µM) of 0.784, a relative viability (NCI-H2023; first compound 0.03162 µM) of 0.945 and a relative viability (NCI-H2023; first compound 0.3162 µM) of 0.929. For the same compound, the relative viability (A-427; first compound 0.01 µM) was 1.24, the relative viability (A-427; first compound 0.03162 µM) was 1.02 and the relative viability (A-427; first compound 0.3162 µM) was 1.03. For the same compound, the relative viability (ABC-1; first compound 0.01 µM) was 1.15, the relative viability (ABC-1; first compound 0.03162 µM) was 1.24 and the relative viability (ABC-1; first compound 0.3162 µM) was 1.17.
For `C[C@@H]1CN(CC(=O)Nc2ccc3c(c2)Cc2cccc(-c4cc(=O)cc(N5CCOCC5)o4)c2S3)C[C@H](C)O1` + C[C@]1(O)C[C@@H](c2nc(-c3ccc4ccc(-c5ccccc5)nc4c3)c3c(N)nccn32)C1 [Linsitinib] (partner 1 µM), the relative viability (UMC-11; first compound 0.04 µM) was 0.997, the relative viability (UMC-11; first compound 0.1265 µM) was 0.993 and the relative viability (UMC-11; first compound 0.4 µM) was 1.05. For the same compound, the relative viability (UMC-11; first compound 4 µM) was 0.857, the relative viability (NCI-H2228; first compound 0.04 µM) was 0.685 and the relative viability (NCI-H2228; first compound 0.1265 µM) was 0.731. The relative viability (NCI-H2228; first compound 0.4 µM) was 0.34, the relative viability (NCI-H2228; first compound 4 µM) was 0.334 and the relative viability (SK-LU-1; first compound 0.04 µM) was 1.18. It also gave a relative viability (SK-LU-1; first compound 0.1265 µM) of 1.19, a relative viability (SK-LU-1; first compound 0.4 µM) of 1.27 and a relative viability (SK-LU-1; first compound 4 µM) of 0.835. It also gave a relative viability (NCI-H1734; first compound 0.04 µM) of 1.01, a relative viability (NCI-H1734; first compound 0.1265 µM) of 0.85 and a relative viability (NCI-H1734; first compound 0.4 µM) of 0.801. For the same compound, the relative viability (NCI-H1734; first compound 4 µM) was 0.92, the relative viability (NCI-H1944; first compound 0.1265 µM) was 1.24 and the relative viability (NCI-H1944; first compound 0.4 µM) was 1.36. For the same compound, the relative viability (NCI-H1944; first compound 4 µM) was 1.22, the relative viability (NCI-H2009; first compound 0.04 µM) was 1.24 and the relative viability (NCI-H2009; first compound 0.1265 µM) was 1.13. It also gave a relative viability (NCI-H2009; first compound 0.4 µM) of 1.1, a relative viability (NCI-H2009; first compound 4 µM) of 0.961 and a relative viability (NCI-H1793; first compound 0.04 µM) of 1.02. For the same compound, the relative viability (NCI-H1793; first compound 0.1265 µM) was 0.695, the relative viability (NCI-H1793; first compound 0.4 µM) was 0.779 and the relative viability (NCI-H1793; first compound 4 µM) was 0.445. It also gave a relative viability (LK-2; first compound 0.04 µM) of 0.255, a relative viability (LK-2; first compound 0.1265 µM) of 0.394 and a relative viability (LK-2; first compound 0.4 µM) of 0.666. The relative viability (LK-2; first compound 4 µM) was 0.824, the relative viability (NCI-H1993; first compound 0.04 µM) was 0.716 and the relative viability (NCI-H1993; first compound 0.1265 µM) was 0.733. For the same compound, the relative viability (NCI-H1993; first compound 0.4 µM) was 0.848, the relative viability (NCI-H1993; first compound 4 µM) was 0.805 and the relative viability (NCI-H23; first compound 0.04 µM) was 0.609. It also gave a relative viability (NCI-H23; first compound 0.1265 µM) of 0.496, a relative viability (NCI-H23; first compound 0.4 µM) of 0.489 and a relative viability (NCI-H23; first compound 4 µM) of 0.494. It also gave a relative viability (NCI-H838; first compound 0.04 µM) of 0.931, a relative viability (NCI-H838; first compound 0.1265 µM) of 0.984 and a relative viability (NCI-H838; first compound 0.4 µM) of 0.871. The relative viability (NCI-H838; first compound 4 µM) was 0.688, the relative viability (HCC-78; first compound 0.04 µM) was 0.485 and the relative viability (HCC-78; first compound 0.1265 µM) was 0.461. The relative viability (HCC-78; first compound 0.4 µM) was 0.344, the relative viability (HCC-78; first compound 4 µM) was 0.461 and the relative viability (COR-L23; first compound 0.04 µM) was 0.97. It also gave a relative viability (COR-L23; first compound 0.1265 µM) of 0.878, a relative viability (COR-L23; first compound 0.4 µM) of 0.936 and a relative viability (COR-L23; first compound 4 µM) of 0.796. It also gave a relative viability (HARA; first compound 0.04 µM) of 0.997, a relative viability (HARA; first compound 0.1265 µM) of 0.876 and a relative viability (HARA; first compound 0.4 µM) of 0.893. It also gave a relative viability (HARA; first compound 4 µM) of 0.906, a relative viability (EMC-BAC-2; first compound 0.04 µM) of 0.805 and a relative viability (EMC-BAC-2; first compound 0.1265 µM) of 0.765. It also gave a relative viability (EMC-BAC-2; first compound 0.4 µM) of 0.757, a relative viability (EMC-BAC-2; first compound 4 µM) of 0.77 and a relative viability (HCC-366; first compound 0.04 µM) of 0.752. The relative viability (HCC-366; first compound 0.1265 µM) was 0.622, the relative viability (HCC-366; first compound 0.4 µM) was 0.428 and the relative viability (HCC-366; first compound 4 µM) was 0.495. It also gave a relative viability (LC-2-ad; first compound 0.04 µM) of 0.798, a relative viability (LC-2-ad; first compound 0.1265 µM) of 0.895 and a relative viability (LC-2-ad; first compound 0.4 µM) of 0.839. The relative viability (LC-2-ad; first compound 4 µM) was 0.719, the relative viability (NCI-H2405; first compound 0.04 µM) was 0.896 and the relative viability (NCI-H2405; first compound 0.1265 µM) was 1.04. It also gave a relative viability (NCI-H2405; first compound 0.4 µM) of 0.832, a relative viability (NCI-H2405; first compound 4 µM) of 0.881 and a relative viability (HCC-15; first compound 0.04 µM) of 0.85. The relative viability (HCC-15; first compound 0.1265 µM) was 0.809, the relative viability (HCC-15; first compound 0.4 µM) was 0.878 and the relative viability (HCC-15; first compound 4 µM) was 0.674. For the same compound, the relative viability (NCI-H2023; first compound 0.04 µM) was 0.751, the relative viability (NCI-H2023; first compound 0.1265 µM) was 0.669 and the relative viability (NCI-H2023; first compound 0.4 µM) was 0.433. For the same compound, the relative viability (NCI-H2023; first compound 4 µM) was 0.496, the relative viability (A-427; first compound 0.04 µM) was 1.23 and the relative viability (A-427; first compound 0.1265 µM) was 1.14. The relative viability (A-427; first compound 0.4 µM) was 1.12, the relative viability (A-427; first compound 4 µM) was 1.11 and the relative viability (ABC-1; first compound 0.1265 µM) was 0.781. It also gave a relative viability (ABC-1; first compound 0.4 µM) of 0.769 and a relative viability (ABC-1; first compound 4 µM) of 0.673.
